According to patent US11692212B2, “Diagnosis and treatment of invasive aspergillosis” (The Brigham and Women's Hospital, Inc., priority 2014, dated 2023):
Starred links: 1 amine or outer side, 2 acyl side, 3 side chain; linkers in the order of their positions; H or OH if unused. Positions of bridges follow the written chain, without caps; N, C: chain ends. Non-standard residues stand in square brackets, D forms with d. Residues, ends and D or L forms follow the SMILES beside them. *: point of attachment. hTyr(3S-OH,4S-OH,3'-OSO3H) = N[C@H](C(=O)O)[C@H](O)[C@@H](O)c1ccc(O)c(OS(=O)(=O)O)c1; Orn(4R-OH,5R-OH) = O=C([C@H](C[C@@H](O)[C@@H](O)N[*:3])N[*:1])[*:2]; Pro(3S-OH,4S-Me) = C[C@H]1CN[C@H](C(=O)O)[C@H]1O; X1 = CCCCCOc1ccc(-c2cc(-c3ccc(C(=O)*)cc3)no2)cc1; Gln(3R-OH) = NC(=O)C[C@@H](O)[C@H](N)C(=O)O; Hyp = O=C(O)[C@@H]1C[C@@H](O)CN1

Tests used:
A. terreus isolates = details: Baddley et al. 2009; cited from earlier work
[1] = test system: A. fumigatus Af293 and A1163; assay: A. fumigatus volatome response to antifungal drug exposure, headspace TD-GC-MS (Example 2); assay type: cell-based, Aspergillus fumigatus; details: 1.0 μg/mL; for all volatile metabolites 36 hours later: 36 hours after the 12-hour sampling
Experimental: We assessed whether we could modulate the A. fumigatus VOC metabolome with voriconazole, micafungin, and liposomal amphotericin B antifungal drug exposure, as described online (Methods). Headspace volatile metabolites of A. terreus, A. flavus, A. niger, and A. calidoustus were characterized as outlined above, in YPD broth at 96 hours.
Assessment of the A. fumigatus volatome response to antifungal drug exposure: For an assessment of A. fumigatus VOC response to antifungal drug exposure, 10^4A. fumigatus Af293 and A1163 conidia were inoculated into YPD broth and incubated at 37° C. at 250 rpm for 48 hours, then exposed to an inhibitory dose (1.0 μg/mL) of voriconazole (Pfizer Inc., New York, N.Y.), micafungin, liposomal amphotericin (both Astellas Pharma US, Inc., Northbrook, Ill.), or no antifungal therapy for 12 hours, in 4 technical replicates, with matched media controls exposed to the same conditions. VOCs in the headspace of each vial were extracted onto thermal desorption tubes. The cultures and media samples were incubated at 37° C. at 250 rpm for another 36 hours, with repeat extraction of the headspace gas onto thermal desorption tubes.
For both in vitro culture headspace extractions and patient breath samples, VOCs were thermally desorbed onto an automated thermal desorption unit (TD-100, Markes International) at 290° C. for 20 minutes with helium carrier gas at a flow rate of 40 mL per minute and concentrated onto a Unity2/TD-100 cold trap (U-15ATA-2S, Markes International). The cold trap was rapidly heated to 270° C. to deliver adsorbed VOCs (3.5:1 split) to a VF624 capillary column (30 m×0.32 mm, 6% cyanopropyl/phenyl, 94% polydimethylsiloxane, film thickness 1.8 μm, Agilent Technologies, Santa Clara, Calif.) with a gas chromatograph (GC) inlet temperature of 250° C. VOCs delivered to the capillary column were separated using a GC temperature program of 40° C. for 3 minutes, raised to 70° C. at a rate of 5° C. per minute and held for 3 minutes, raised to 203° C. at 7° C. per minute and held for 4 minutes, then rapidly raised to 270° C. and held for 5 minutes. A single quadrupole mass spectrometry (MS) detector (Agilent 5975, Agilent Technologies, Santa Clara, Calif.) was used to analyze and identify VOCs, with a MS source temperature of 230° C., MS quad temperature of 150° C., and an electron ionization parameter of […]. A mass range m/z 40-400 was measured with a threshold of 150.
We assessed whether we could modulate the A. fumigatus VOC metabolome with voriconazole, micafungin, and liposomal amphotericin B antifungal drug exposure. […]

Aspergillus fumigatus = assay: Antifungal exposure of 48-hour hyphal cultures, headspace VOC release by GC-MS (Example 1); assay type: cell-based; parameters: increase in some of the key A. fumigatus VOC features / change of key A. fumigatus VOC features at 24 hours: dose or concentration left out as unconfirmed; details: for change of key A. fumigatus VOC features at 24 hours: vs matched controls
Experimental: For each experiment, 10^4 conidia were inoculated into 5 mL of microbial media (either nutrient Yeast Extract Peptone Dextrose (YPD) broth, nutrient poor Aspergillus minimal media (Pontecorvo et al., Advan Genet 1953; 5:141-238), or under iron-starved, alkaline stress, or nitrogen-depleted conditions (McDonagh et al., PLoS Pathog 2008; 4:e1000154)) in 20 mL glass vials with an airtight crimp top incorporating a rubber septum. Cultures were incubated for 24-144 hours at 200 rpm and 37° C. and headspace gas was dynamically adsorbed, using argon carrier gas and an air sampling pump calibrated to 20 mL/minute, onto Markes thermal desorption traps containing tandem beds of Tenax TA (200 mg), Carbograph 1 TD (100 mg), and Carboxen 1003 (100 mg), optimized to retain VOCs of diverse size and polarity.
Headspace VOCs were also collected after exposure of a subset of fungal isolates to the antifungal drugs voriconazole, liposomal amphotericin B, and micafungin, each at a concentration of […].
VOCs were desorbed onto a dual GC-MS/DMS system (FIG. 1)—the eluent from the gas chromatograph was split between the MS, to allow identification of each compound, and the DMS, an extremely sensitive and selective gas detector that can be easily used as a point-of-care gas detection device, to determine the mobility pattern for each compound. The NIST MS Search 2.0 Library was used to identify VOCs in the total ion chromatogram (TIC) of the GC-MS data. Differences in spectral features of DMS output were visually distinguished between the positive ion spectra of A. fumigatus and A. terreus and principal component analysis (PCA) was used to evaluate the degree of class discrimination between these fungal species using algorithms in MATLAB (Version R2012a).
Whether exposure to antifungal drugs might modulate VOC release in Aspergillus fumigatus was assessed in vitro.

[2] = drug added to 48-hour hyphal cultures, after 24 hours

Row | SMILES | susceptibility of some A. terreus isolates (A. terreus isolates) | β-trans-bergamotene increase from baseline ([1]; 12 hours of exposure, 48-hour hyphae in YPD broth) [fold] | all volatile metabolites 36 hours later [1] | increase in some of the key A. fumigatus VOC features (Aspergillus fumigatus; drug added to 48-hour hyphal cultures, after 24 hours, vs matched control samples without drug) [fold] | change of key A. fumigatus VOC features at 24 hours (Aspergillus fumigatus; [2]) | change of key A. fumigatus VOC features with longer incubation (Aspergillus fumigatus; longer duration of incubation and hyphal death) | primary metabolite, monoterpene, and sesquiterpene production ([1]; 12 hours of exposure)
1 | C[C@@H]1[C@H](O)[C@@H](C)/C=C/C=C/C=C/C=C/C=C/C=C/C=C/[C@H](O[C@@H]2O[C@H](C)[C@@H](O)[C@H](N)[C@@H]2O)C[C@@H]2O[C@](O)(C[C@@H](O)C[C@@H](O)[C@H](O)CC[C@@H](O)C[C@@H](O)CC(=O)O[C@H]1C)C[C@H](O)[C@H]2C(=O)O [AMB, amphotericin B] | resistant | – | – | – | – | – | –
2 | CCCCCOc1ccc(-c2cc(-c3ccc(C(=O)N[C@H]4C[C@@H](O)[C@@H](O)NC(=O)[C@@H]5[C@@H](O)[C@@H](C)CN5C(=O)[C@H]([C@H](O)CC(N)=O)NC(=O)[C@H]([C@H](O)[C@@H](O)c5ccc(O)c(OS(=O)(=O)O)c5)NC(=O)[C@@H]5C[C@@H](O)CN5C(=O)[C@H]([C@@H](C)O)NC4=O)cc3)no2)cc1 [micafungin] (X1-[Orn(4R-OH,5R-OH)]T[Hyp][hTyr(3S-OH,4S-OH,3'-OSO3H)][Gln(3R-OH)][Pro(3S-OH,4S-Me)]; lactam 1-C) | – | 10 | near-complete attenuation | ≤ 17 | initial increase | attenuation | –
3 | C[C@@H](c1ncncc1F)[C@](O)(Cn1cncn1)c1ccc(F)cc1F [voriconazole] | – | – | attenuation | – | near-complete attenuation | – | reduced
